Publication PMC3480797 (Indian Journal of Pharmacology, 2012)

Key:
[1] = type: in vivo, rats; details: rat, oral nimodipine 12 mg/kg
[2] = type: in vivo, rats; details: rat, i.v. nimodipine 3 mg/kg, with pravastatin 0.3 and 1 mg/kg
[3] = biological target: P-gp (Homo sapiens, UniProt P08183); experiment: Rhodamine-123 retention assay in P-gp overexpressing MCF-7/ADR cells; type: cell-based; details: 10 to 100 μM, 90 min, 20 μM rhodamine-123, MCF-7/ADR cells
[4] = biological target: human CYP3A4 (Homo sapiens, UniProt P08684); experiment: biochemical
Sequence of human CYP3A4 (P08684 whole entry): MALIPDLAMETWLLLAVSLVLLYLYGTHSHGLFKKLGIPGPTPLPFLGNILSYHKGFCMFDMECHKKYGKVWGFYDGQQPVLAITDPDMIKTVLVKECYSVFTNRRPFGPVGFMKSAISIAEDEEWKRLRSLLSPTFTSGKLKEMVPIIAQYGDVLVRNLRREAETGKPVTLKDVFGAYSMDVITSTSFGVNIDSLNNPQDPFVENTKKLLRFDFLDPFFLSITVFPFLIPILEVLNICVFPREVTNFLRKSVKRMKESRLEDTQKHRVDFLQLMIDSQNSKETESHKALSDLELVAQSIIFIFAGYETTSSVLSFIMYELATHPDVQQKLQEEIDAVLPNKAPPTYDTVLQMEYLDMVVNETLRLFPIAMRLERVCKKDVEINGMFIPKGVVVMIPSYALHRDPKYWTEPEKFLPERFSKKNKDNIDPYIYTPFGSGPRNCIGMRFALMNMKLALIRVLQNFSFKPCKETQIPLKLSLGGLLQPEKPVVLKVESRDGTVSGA

Sequence of P-gp (P08183 whole entry): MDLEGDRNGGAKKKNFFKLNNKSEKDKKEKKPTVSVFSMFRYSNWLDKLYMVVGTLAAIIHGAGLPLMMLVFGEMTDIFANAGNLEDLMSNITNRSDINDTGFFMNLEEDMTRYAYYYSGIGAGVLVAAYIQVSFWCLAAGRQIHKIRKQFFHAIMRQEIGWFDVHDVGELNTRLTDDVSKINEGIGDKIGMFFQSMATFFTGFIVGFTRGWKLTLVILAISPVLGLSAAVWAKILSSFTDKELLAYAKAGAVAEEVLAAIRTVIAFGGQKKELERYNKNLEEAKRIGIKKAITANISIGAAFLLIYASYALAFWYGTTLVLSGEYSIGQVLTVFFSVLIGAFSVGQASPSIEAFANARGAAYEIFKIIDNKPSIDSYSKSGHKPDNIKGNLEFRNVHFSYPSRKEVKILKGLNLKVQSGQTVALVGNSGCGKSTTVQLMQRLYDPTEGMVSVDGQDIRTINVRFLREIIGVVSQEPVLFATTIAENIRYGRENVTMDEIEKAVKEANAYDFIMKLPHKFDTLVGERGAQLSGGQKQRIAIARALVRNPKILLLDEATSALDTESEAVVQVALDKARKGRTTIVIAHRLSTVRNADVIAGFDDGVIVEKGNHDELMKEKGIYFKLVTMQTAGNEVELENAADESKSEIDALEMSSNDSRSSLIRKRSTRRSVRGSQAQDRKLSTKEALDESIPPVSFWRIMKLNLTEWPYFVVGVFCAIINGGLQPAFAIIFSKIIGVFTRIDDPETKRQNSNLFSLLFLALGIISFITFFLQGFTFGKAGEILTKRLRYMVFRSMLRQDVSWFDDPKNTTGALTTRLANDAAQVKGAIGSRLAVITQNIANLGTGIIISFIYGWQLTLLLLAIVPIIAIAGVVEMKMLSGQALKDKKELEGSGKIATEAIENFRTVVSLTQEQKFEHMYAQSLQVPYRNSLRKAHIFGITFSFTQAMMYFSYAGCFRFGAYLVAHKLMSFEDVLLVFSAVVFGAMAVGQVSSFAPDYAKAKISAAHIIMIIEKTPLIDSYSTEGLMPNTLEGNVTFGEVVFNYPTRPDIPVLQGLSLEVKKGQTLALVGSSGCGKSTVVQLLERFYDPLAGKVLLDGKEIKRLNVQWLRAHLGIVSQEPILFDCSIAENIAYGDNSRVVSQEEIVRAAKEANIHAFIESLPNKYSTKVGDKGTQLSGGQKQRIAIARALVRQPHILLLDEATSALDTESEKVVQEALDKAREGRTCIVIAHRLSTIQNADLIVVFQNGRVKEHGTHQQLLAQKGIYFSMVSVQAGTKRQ

Compound | increase of AUC0-∞ compared with the control group ([1]; with 1 mg/kg pravastatin, P < 0.05) [%] | increase of AB compared with the oral control group ([1]; with pravastatin (1 mg/kg)) [%] | effect of concurrent pravastatin on the pharmacokinetics of i.v. nimodipine [2] | effect on P-gp activity (cellular uptake of rhodamine-123) [3] | IC50 [4] [µM]
COCCOC(=O)C1=C(C)NC(C)=C(C(=O)OC(C)C)C1c1cccc([N+](=O)[O-])c1 (centres unmarked) [nimodipine, Nimodipine] | 30.9 | 31.1 | not affected | – | –
CC[C@H](C)C(=O)O[C@H]1C[C@H](O)C=C2C=C[C@H](C)[C@H](CC[C@@H](O)C[C@@H](O)CC(=O)O)[C@H]21 [pravastatin, Pravastatin] | – | – | – | did not significantly inhibit P-gp activity | 14
